# Data reported in patent publication US11766434B2, “Pyrimidinone derivatives as CDC7 inhibitors” (Cancer Research Technology Limited, priority 2016, dated 2023).
# Molecular target: Cdc7/ASK (Homo sapiens, UniProt O00311)
# Assay: Cdc7 biochemical assay Method 1: 384 well ELISA, MCM2 whole protein substrate, Phospho MCM2 (S53) antibody
# Set-up: purchased
# Settings: ATP 2 μM, 90 minutes, read-out: Biochemical method 1 (pIC50) (converted)
# How it was run: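 Commercial Cdc7/ASK phosphorylates plate-bound MCM2 with 2 μM ATP in Tris pH 8.5/MgCl2/DTT, 4% DMSO, 90 min at room temperature. Phospho-MCM2 (S53) detected by antibody ELISA with AP/PNPP absorbance. Inhibition normalised to DMSO and no-enzyme controls; IC50 from curve fit.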
# Cdc7/ASK, sequence (O00311 whole entry): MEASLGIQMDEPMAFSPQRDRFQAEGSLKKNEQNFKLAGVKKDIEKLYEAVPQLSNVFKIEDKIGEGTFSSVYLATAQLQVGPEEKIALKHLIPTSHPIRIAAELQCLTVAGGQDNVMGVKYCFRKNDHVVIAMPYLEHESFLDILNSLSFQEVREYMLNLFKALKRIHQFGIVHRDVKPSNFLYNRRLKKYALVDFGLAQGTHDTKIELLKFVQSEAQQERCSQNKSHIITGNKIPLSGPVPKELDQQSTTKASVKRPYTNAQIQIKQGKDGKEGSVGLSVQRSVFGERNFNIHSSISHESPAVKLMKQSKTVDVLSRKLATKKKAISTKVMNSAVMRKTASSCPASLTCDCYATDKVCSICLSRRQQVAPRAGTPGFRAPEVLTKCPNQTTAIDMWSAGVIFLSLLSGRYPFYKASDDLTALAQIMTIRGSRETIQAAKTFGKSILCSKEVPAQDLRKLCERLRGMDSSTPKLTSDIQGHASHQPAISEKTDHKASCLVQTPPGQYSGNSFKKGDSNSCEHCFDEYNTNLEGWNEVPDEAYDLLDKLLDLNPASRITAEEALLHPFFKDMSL
# Cdc7/ASK, sequence (Q9UBU7 whole entry partner): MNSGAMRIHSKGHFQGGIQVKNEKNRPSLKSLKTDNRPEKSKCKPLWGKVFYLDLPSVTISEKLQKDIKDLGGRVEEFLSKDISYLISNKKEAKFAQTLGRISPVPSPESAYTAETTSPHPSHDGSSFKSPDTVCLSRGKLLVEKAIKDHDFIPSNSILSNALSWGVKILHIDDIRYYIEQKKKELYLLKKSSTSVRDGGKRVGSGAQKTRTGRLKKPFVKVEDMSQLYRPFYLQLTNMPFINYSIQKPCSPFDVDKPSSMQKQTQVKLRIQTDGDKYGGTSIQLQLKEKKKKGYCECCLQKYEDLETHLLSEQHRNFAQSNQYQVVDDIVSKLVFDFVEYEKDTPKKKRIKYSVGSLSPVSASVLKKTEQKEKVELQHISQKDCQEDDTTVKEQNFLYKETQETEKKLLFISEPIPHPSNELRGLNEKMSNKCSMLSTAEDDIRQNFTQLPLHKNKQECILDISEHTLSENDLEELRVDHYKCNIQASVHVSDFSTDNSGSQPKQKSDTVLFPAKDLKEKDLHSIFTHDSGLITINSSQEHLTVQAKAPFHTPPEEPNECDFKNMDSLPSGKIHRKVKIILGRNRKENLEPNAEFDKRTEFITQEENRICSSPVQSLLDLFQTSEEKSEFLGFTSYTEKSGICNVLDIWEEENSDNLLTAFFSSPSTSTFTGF
row,IC50,SMILES
1,3.8 nM,"Cc1ncsc1-c1nc(C2CCOCC2)c(Cl)c(=O)[nH]1 [Compound 6, 5-chloro-2-(4-methylthiazol-5-yl)-4-tetrahydropyran-4-yl-1H-pyrimidin-6-one]"
2,2.09 nM,"Cc1ncsc1-c1nc(N2CCN[C@@H](C(F)(F)F)C2)c(Cl)c(=O)[nH]1 [Compound 28, 5-chloro-2-(4-methylthiazol-5-yl)-4-[(3R)-3-(trifluoromethyl)piperazin-1-yl]-1H-pyrimidin-6-one]"
3,1.62 nM,"O=c1[nH]c(-c2scnc2Cl)nc(C2CCOCC2)c1Cl [Compound 4, 5-chloro-2-(4-chlorothiazol-5-yl)-4-tetrahydropyran-4-yl-1H-pyrimidin-6-one]"
4,1.82 nM,"O=c1[nH]c(-c2scnc2C(F)(F)F)nc(C2CCOCC2)c1Cl [Compound 14, 5-chloro-4-tetrahydropyran-4-yl-2-[4-(trifluoromethyl)thiazol-5-yl]-1H-pyrimidin-6-one]"
5,1.2 nM,"O=c1[nH]c(-c2cn[nH]c2C(F)(F)F)nc(C2CCOCC2)c1Cl [Compound 17, 5-chloro-4-tetrahydropyran-4-yl-2-[5-(trifluoromethyl)-1H-pyrazol-4-yl]-1H-pyrimidin-6-one]"
